Laboratory results: patent publication US20040176316A1, “Compounds for the normalization of the sleep/wake cycle” (priority 2002, published 2004)
Entries after “also recorded” stand apart in the source; their conditions may differ. Read-outs that look alike come from different tables or passages of the source.

What was measured:
[1] = system: human subjects; assay: Effects of citicoline on sleep quality and mood, rated by subjects on a 10 point scale (FIG. 1); format: in vivo
Text: FIG. 1 is a graph of the effects of citicoline on sleep quality and mood. […] The quality of sleep is improved, and the sleep/wake cycle is normalized after 2-4 weeks of citicoline treatment. This normalization of the sleep/wake cycle may further promote increased wakefulness or reduce fatigue or tiredness during the day. The administration of citicoline will also likely stabilize the homeostatic processes involved in sleep disorders such as insomnia, sleep apneas (central or obstructive), problem sleepiness, restless leg syndrome, periodic limb movements, and narcolepsy. In addition, citicoline may increase cognitive functioning (Alvarez et al. Methods Find Exp Clin Pharmacol 21:633-44, 1999; Fioravanti et al. Cochrane Database Syst. Rev. 4: CD000269, 2000) and may be used to increase cognitive performance in individuals in a sleep-deprived state, e.g., pilots, physicians, students, or others who may experience long periods without sleep.

[2] = system: cocaine user; assay: Level of activity as a function of time of day in a cocaine user without and with CDP-choline treatment (FIGS. 2A and 2B); format: in vivo
Text: FIGS. 2A and 2B are graphs of level of activity as a function of time of day without (A) and with (B) citicoline treatment. A, B, and C refer to use of alcohol, caffeine, and cocaine, respectively. The numbers indicate a craving for cocaine, based on a 10 point scale. Gray dots indicate ingestion of citicoline.
CDP-choline and related compounds are also useful in the treatment of substance abuse disorders, such as alcohol, cocaine, opiate, opioid, nicotine, or tobacco usage or dependence (U.S. Pat. Nos. 5,958,896 and 6,103,703 and U.S. Provisional Application No. 60/424,972, filed Nov. 8, 2002). Since substance abuse disorders may cause a disruption in the quality of sleep or the sleep/wake cycle, the methods of the invention may be used to normalize the sleep/wake cycle or treat sleep disorders in patients with a substance abuse disorder. In addition, a substance abuse disorder and an abnormal sleep/wake cycle or sleep disorder may be treated simultaneously with the methods described herein. FIGS. 2A and 2B show data on the level of activity of a cocaine user for five days without treatment (FIG. 2A) and for 5 days after treatment with CDP-choline (FIG. 2B, monitoring began 4 days after treatment). […] In addition, the subject's use of cocaine (denoted by C) was eliminated with treatment, and the use of alcohol (denoted by A) was reduced.

[3] = cited from earlier work
[4] = cited from earlier work; remark: listed apart in the source
[5] = cited from earlier work; remark: listed apart in the source
[6] = after 2-4 weeks of citicoline treatment
[7] = human subjects, measured by the subjects on a 10 point scale, compared to placebo (FIG. 1)

In the case of C[N+](C)(C)CCOP(=O)(O)OP(=O)([O-])OC[C@H]1O[C@@H](n2ccc(N)nc2=O)[C@H](O)[C@@H]1O [CDP-choline, cytidine 5′-diphosphocholine], the quality of sleep [1, 6] is reported as “improved”, the sleep/wake cycle [1, 6] is reported as “normalized” and the mood [1, 7] is reported as “increases”. For the same compound, the quality of sleep [1, 7] was “increases”, the sleep/wake cycle ([2]; 5 days of monitoring that began 4 days after treatment, vs five days without treatment) was “normalized to a diurnal pattern” and the “cravings for cocaine (10 point scale)” value ([2]; after treatment) was “reduced in intensity”. For the same compound, the “level of activity during the day” value ([2]; after treatment vs without treatment) was “more active during the day”, the use of alcohol ([2]; with treatment) was “reduced” and the use of cocaine ([2]; with treatment) was “eliminated”. For the same compound, the “metabolic conversion after administration” value ([3]; administered either orally or intravenously) was “rapidly metabolized to cytidine and choline; also recorded: rapidly converted into the two major circulating metabolites, choline and cytidine”, the “CDP-choline and/or its metabolites absorbed” value ([3]; orally administered) was “more than 99%” and the excreted in feces ([3]; orally administered) was “less than 1%”. For the same compound, the excretion via lung ([3]; share of dose) was 12.9%, the excretion via urine ([3]; share of dose) was 2.4% and the “rest of the dose metabolized and retained in tissues” value ([3]; share of dose) was 83.9%. The toxicity symptoms ([4]; ingestion of large amounts in preclinical studies) was “common cholinergic symptoms (salivation, lacrimation, urination, defecation, and vomiting)”, the overdoses ([4]; reported cases) was “no reported cases of overdoses” and the tolerability ([5]; mammals) was “well tolerated”.

In the case of CN(CC(=O)O)C(=N)N [Creatine, creatine], the tolerability ([5]; humans) is listed as “well tolerated at relatively high doses”.

In the case of CC(=O)OC[C@H]1O[C@@H](n2ccc(=O)[nH]c2=O)[C@H](OC(C)=O)[C@@H]1OC(C)=O [triacetyl uridine], the tolerability ([5]; in vivo) is given as “well tolerated”.

For O=c1ccn([C@@H]2O[C@H](CO)[C@@H](O)[C@H]2O)c(=O)[nH]1 [uridine], the tolerability ([5]; humans) is given as “well tolerated” and the tolerability ([5]; mammals) is given as “well tolerated”.
